We go through 9 test systems from the supplement of paper PMC6045584.

± gives the standard deviation of the averaged measurements.

Compound in assay [1]: C[C@@H](Oc1cc(-c2cnn(C3CCNCC3)c2)cnc1N)c1c(Cl)ccc(F)c1Cl
Briefly: surviving fraction relative to DMSO-only wells; higher = less growth inhibition. As to conditions: exposure time: 5 days. In outline: (§1)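 Surviving fraction was calculated by normalising CellTiter-Glo luminescence to the median of DMSO-only wells. Tumour cell lines in log phase were seeded in 384-well plates at 250–500 cells per well, and 24 hours later were exposed continuously for five days to inhibitors at 0.5, 1, 5, 10, 50, 100, 500 and 1000 nM.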

Compound in a further assay: O=C(c1cc(Cc2n[nH]c(=O)c3ccccc23)ccc1F)N1CCN(C(=O)C2CC2)CC1 [OLAPARIB]
Described as above. As to conditions: exposure time: 5 days. The essentials: as §1

Turning to T47D BREAST, the surviving fraction in assay [1] (0.5 nM) amounted to 0.912 ± 0.03; in assay [1] (1 nM), 0.949 ± 0.026; in assay [1] (5 nM), 0.938 ± 0.049; in assay [1] (10 nM), 0.95 ± 0.026; in assay [1] (50 nM), 1.02 ± 0.038; in assay [1] (100 nM), 1.03 ± 0.059. Also, the surviving fraction turned out to be 0.856 ± 0.041 in assay [1] (1000 nM); 1.01 ± 0.04 with OLAPARIB (0.5 nM); 1 ± 0.052 with OLAPARIB (1 nM); 0.986 ± 0.011 in the assay with OLAPARIB (5 nM); 0.982 ± 0.027 with OLAPARIB (10 nM); 0.997 ± 0.061 with OLAPARIB (50 nM). Moreover, the values for the surviving fraction with OLAPARIB (100 nM), with OLAPARIB (500 nM) and with OLAPARIB (1000 nM) were 0.9606 ± 0.0086, 0.971 ± 0.05 and 0.864 ± 0.023, respectively.
For SG28 HEADNECK, the surviving fraction in assay [1] (1 nM) turned out to be 0.918 ± 0.053; in assay [1] (5 nM), 0.85 ± 0.067; in assay [1] (50 nM), 1 ± 0.042; in assay [1] (100 nM), 1.07 ± 0.098; in assay [1] (1000 nM), 0.764 ± 0.12; in the assay with OLAPARIB (0.5 nM), 1.12 ± 0.13. Besides, the surviving fraction in the assay with OLAPARIB (1 nM) was 0.982 ± 0.12; with OLAPARIB (5 nM) it was 1.02 ± 0.09; with OLAPARIB (10 nM), 0.952 ± 0.088; with OLAPARIB (50 nM), 0.914 ± 0.13; with OLAPARIB (100 nM), 0.887 ± 0.13; in the assay with OLAPARIB (500 nM), 0.928 ± 0.024. For the same test system, the surviving fraction in the assay with OLAPARIB (1000 nM) is 0.926 ± 0.065.
Consider SUM159 BREAST, for which the surviving fraction was 1.07 ± 0.2 in assay [1] (0.5 nM); 1.07 ± 0.17 in assay [1] (1 nM); 1.07 ± 0.18 in assay [1] (5 nM); 1.05 ± 0.16 in assay [1] (10 nM); 1.07 ± 0.19 in assay [1] (50 nM); 0.984 ± 0.06 in assay [1] (100 nM). In addition, the surviving fraction in assay [1] (500 nM) worked out at 1.04 ± 0.19; in assay [1] (1000 nM), 0.94 ± 0.086; in the assay with OLAPARIB (0.5 nM) it was 1.12 ± 0.075; with OLAPARIB (1 nM), 1.05 ± 0.066; with OLAPARIB (5 nM) it was 1.084 ± 0.01; in the assay with OLAPARIB (10 nM), 1.06 ± 0.016. The surviving fraction with OLAPARIB (50 nM) was 1.05 ± 0.051; with OLAPARIB (100 nM), 0.948 ± 0.24; in the assay with OLAPARIB (500 nM) it was 1.02 ± 0.079; with OLAPARIB (1000 nM), 0.993 ± 0.091.
MDAMB134 BREAST: the surviving fraction in assay [1] (0.5 nM) was 0.712 ± 0.097; in assay [1] (1 nM), 0.718 ± 0.13; in assay [1] (5 nM), 0.624 ± 0.11; in assay [1] (10 nM) it was 0.667 ± 0.0014; in assay [1] (50 nM) it was 0.854 ± 0.029; in assay [1] (100 nM), 0.767 ± 0.038. The surviving fraction in assay [1] (500 nM) came to 0.758 ± 0.097; in assay [1] (1000 nM) it was 0.709 ± 0.1; in the assay with OLAPARIB (0.5 nM) it was 0.96 ± 0.055; with OLAPARIB (1 nM), 1.04 ± 0.17; in the assay with OLAPARIB (5 nM), 1.04 ± 0.13; with OLAPARIB (10 nM) it was 1.05 ± 0.03. The surviving fraction in the assay with OLAPARIB (50 nM) came to 0.971 ± 0.21; in the assay with OLAPARIB (100 nM) it was 0.738 ± 0.042; with OLAPARIB (500 nM) it was 0.8595 ± 0.0035; with OLAPARIB (1000 nM) it was 0.823 ± 0.028.
Take SG27 HEADNECK: the surviving fraction in assay [1] (0.5 nM) was 1.01 ± 0.016; in assay [1] (10 nM), 0.893 ± 0.07; in assay [1] (50 nM), 1 ± 0.089; in assay [1] (100 nM), 0.92 ± 0.045; in assay [1] (1000 nM) it was 0.668 ± 0.053; in the assay with OLAPARIB (0.5 nM) it was 1 ± 0.049. Also, the surviving fraction with OLAPARIB (1 nM) came out at 1.05 ± 0.14; in the assay with OLAPARIB (5 nM), 0.969 ± 0.093; with OLAPARIB (10 nM), 0.991 ± 0.1; in the assay with OLAPARIB (50 nM) it was 0.916 ± 0.074; with OLAPARIB (100 nM), 0.995 ± 0.092; with OLAPARIB (500 nM), 0.981 ± 0.22. For the same test system, the surviving fraction in the assay with OLAPARIB (1000 nM) came out at 1.02 ± 0.11.
93VU HEADNECK: the surviving fraction in assay [1] (0.5 nM) worked out at 0.809 ± 0.025; in assay [1] (1 nM), 0.816 ± 0.02; in assay [1] (5 nM), 0.835 ± 0.043; in assay [1] (10 nM), 0.866 ± 0.068; in assay [1] (50 nM) it was 1.08 ± 0.068; in assay [1] (100 nM) it was 1.06 ± 0.083. In addition, the surviving fraction amounted to 0.77 ± 0.02 in assay [1] (500 nM); 0.521 ± 0.068 in assay [1] (1000 nM); 1.02 ± 0.1 with OLAPARIB (0.5 nM); 1.01 ± 0.074 in the assay with OLAPARIB (1 nM); 1.12 ± 0.033 in the assay with OLAPARIB (5 nM); 1.07 ± 0.09 in the assay with OLAPARIB (10 nM). The surviving fraction in the assay with OLAPARIB (50 nM) was 0.955 ± 0.072; in the assay with OLAPARIB (100 nM) it was 0.955 ± 0.03; with OLAPARIB (500 nM) it was 0.92 ± 0.049; in the assay with OLAPARIB (1000 nM), 0.837 ± 0.096.
In the case of HCC202 BREAST, the surviving fraction in assay [1] (0.5 nM) came to 1.31 ± 0.55; in assay [1] (1 nM), 1.08 ± 0.25; in assay [1] (5 nM), 1.31 ± 0.015; in assay [1] (10 nM) it was 1.05 ± 0.069; in assay [1] (50 nM) it was 1.32 ± 0.23; in assay [1] (100 nM), 1.37 ± 0.17. For the same test system, the surviving fraction stood at 0.896 ± 0.024 with OLAPARIB (0.5 nM); 0.973 ± 0.12 with OLAPARIB (1 nM); 0.987 ± 0.19 with OLAPARIB (5 nM); 0.92 ± 0.2 in the assay with OLAPARIB (10 nM); 0.713 ± 0.2 in the assay with OLAPARIB (50 nM); 0.68 ± 0.026 with OLAPARIB (100 nM). For the same test system, the surviving fraction was found to be 0.737 ± 0.075 with OLAPARIB (500 nM) and 0.649 ± 0.1 with OLAPARIB (1000 nM).
As to S68 BREAST, the surviving fraction in assay [1] (0.5 nM) came to 0.733 ± 0.09; in assay [1] (1 nM), 0.819 ± 0.31; in assay [1] (10 nM), 0.838 ± 0.19; in assay [1] (100 nM) it was 0.847 ± 0.16; in assay [1] (500 nM) it was 0.567 ± 0.19; in assay [1] (1000 nM) it was 0.398 ± 0.084. Moreover, the surviving fraction was determined as 0.986 ± 0.17 in the assay with OLAPARIB (0.5 nM); 0.927 ± 0.014 with OLAPARIB (1 nM); 0.925 ± 0.23 with OLAPARIB (5 nM); 0.896 ± 0.16 with OLAPARIB (10 nM); 0.941 ± 0.084 in the assay with OLAPARIB (50 nM); 0.771 ± 0.26 in the assay with OLAPARIB (100 nM). The surviving fraction in the assay with OLAPARIB (500 nM) came out at 0.715 ± 0.15; with OLAPARIB (1000 nM) it was 0.612 ± 0.097.
As for PCI30 HEADNECK, the surviving fraction amounted to 0.959 ± 0.036 in assay [1] (0.5 nM); 1.07 ± 0.058 in assay [1] (5 nM); 1.06 ± 0.076 in assay [1] (50 nM); 1.11 ± 0.046 in assay [1] (100 nM); 0.679 ± 0.039 in assay [1] (500 nM); 0.513 ± 0.016 in assay [1] (1000 nM). Also, the surviving fraction with OLAPARIB (0.5 nM) is 0.973 ± 0.043; with OLAPARIB (1 nM), 0.969 ± 0.12; with OLAPARIB (5 nM), 1.03 ± 0.016; in the assay with OLAPARIB (10 nM), 1.02 ± 0.095; with OLAPARIB (50 nM) it was 0.98 ± 0.069; with OLAPARIB (100 nM), 0.92 ± 0.052. The surviving fraction was determined as 0.856 ± 0.057 with OLAPARIB (500 nM) and 0.744 ± 0.05 in the assay with OLAPARIB (1000 nM).
